Experiment [1] relates to Human pan T-cells with piggyBac integrated iC9. Description: iC9 safety switch test, viability by flow cytometry using 7-AAD. Type of experiment: cell-based. Conditions: iC9-containing modified T cells; 24 hours incubation. The text has this:
Human pan T-cells were nucleofected using an Amaxa 4D nucleofector with one of four piggyBac transposons. Modified T cells receiving the “mock” condition were nucleofected with an empty piggyBac transposon. Modified T cells received either a piggyBac […] containing a therapeutic agent alone (a sequence encoding a CARTyrin) or a piggyBac […] containing an integrated iC9 sequence and a therapeutic agent (a sequence encoding a CARTyrin). To test the iC9 safety switch, each of the four modified T cells were incubated for 24 hours with 0, 0.1 nM, 1 nM, 10 nM, 100 nM or 1000 nM AP1903 (an induction agent for […]). Viability was assessed by flow cytometry using 7-aminoactinomycin D (7-AAD), a fluorescent intercalator, as a marker for cells undergoing apoptosis. Cell viability was assessed at day 12 (see FIG. 2). […] Moreover, cell viability was assessed at day 19 (see FIG. 3). […] A quantification of the aggregated results was performed and is provided in FIG. 4, showing the significant impact of the iC9 safety switch on the percent cell viability as a function of the concentration of the induction agent (AP1903) of the iC9 switch for each modified cell type at either day 12 (FIG. 2 and left graph) or day 19 (FIG. 3 and right graph). […] Furthermore, the iC9 safety switch may be functionally expressed as part of a tricistronic vector.
Background: A flow cytometer gives signals particle by particle.

Experiment [2] has as its system CARTyrin-expressing cells. Briefly: in vitro efficacy of iC9 safety switch with AP1903 (relative viability, live cells per bead events). Type of experiment: cell-based, Human. On the procedure: FIGS. 2A-2B is a series of graphs depicting results of evaluating the in vitro efficacy of an inducible proapoptotic polypeptide (iC9 safety switch) of the disclosure using the exemplary induction agent AP1903. Cells expressing a CARTyrin of the disclosure were A) thawed and rested overnight or B) activated using ImmunoCult™ Human CD3/CD28/CD2 T cell Activator reagent for 5 days were treated with AP1903 for the indicated length of time and concentrations. All data points were collected in triplicate and relative viability determined by dividing the number of live cells in the treatment group by the average number of live cells in the no treatment group per 1,500 bead events collected. Greater than 80% of the non-activated CARTyrin-expressing cells were eliminated from the culture at 24 hours across all dose levels tested (FIG. 1). There was no observable difference between the 24 hour and 48 hour time point in the non-activated cells. In the activated CARTyrin-expressing cells however, both a dose response as well as temporal response were observed. At 12 hours post AP1903 administration, >65% of the cells were killed by concentrations as low as 1 nM. […] Expression of the CARTyrin is be increased upon activation of the cells, and provided the vector design; the expression of iC9 could also increase. Therefore, an activated cell may express higher levels of iC9 making it more sensitive to AP1903. In many embodiments, the activated cells will be the target if and when employing the safety switch.

A value given as a limit tells only on which side of the number the result lay.

The text below walks through data of patent US11744861B2, “Compositions and methods for selective elimination and replacement of hematopoietic stem cells” (Poseida Therapeutics, Inc., priority 2017, dated 2023).

Take `CC[C@H](C(=O)N1CCCC[C@H]1C(=O)O[C@H](CCc1ccc(OC)c(OC)c1)c1cccc(OCC(=O)NCCNC(=O)COc2cccc([C@@H](CCc3ccc(OC)c(OC)c3)OC(=O)[C@@H]3CCCCN3C(=O)[C@@H](CC)c3cc(OC)c(OC)c(OC)c3)c2)c1)c1cc(OC)c(OC)c(OC)c1` [AP1903]: the “concentration at which apoptosis is induced (lowest of the study)” value in experiment [1] is reported as 0.1 nM. Further, the cells killed in experiment [2] (activated CARTyrin-expressing cells, 12 hours post AP1903, concentrations as low as 1 nM) was > 65%; in experiment [2] (activated cells, 48 hours) it was > 95%. The “cells eliminated from the culture” value in experiment [2] (non-activated CARTyrin-expressing cells, 24 hours, all dose levels tested) is given as “Greater than 80%”.
